# Test system: methicillin sensitive S. aureus (strain MN8)
# Test: Murine lethal septicemia model in immuno-competent mice
# Format: in vivo
# Conditions: Vancomycin 30 mg/kg
# Protocol: Differences in viable bacterial counts between control and drug-treated groups were analyzed by 1-way ANOVA followed by Dunnett's adjustment for multiplicity. For lethal septicemia, differences in survival between control and drug-treated groups were performed using a Log Rank test followed by a Bonferroni-Holm's adjustment for multiplicity
smiles,measurement,value
CN[C@H](CC(C)C)C(=O)N[C@H]1C(=O)N[C@@H](CC(N)=O)C(=O)N[C@H]2C(=O)N[C@H]3C(=O)N[C@H](C(=O)N[C@H](C(=O)O)c4cc(O)cc(O)c4-c4cc3ccc4O)[C@H](O)c3ccc(c(Cl)c3)Oc3cc2cc(c3O[C@@H]2O[C@H](CO)[C@@H](O)[C@H](O)[C@H]2O[C@H]2C[C@](C)(N)[C@H](O)[C@H](C)O2)Oc2ccc(cc2Cl)[C@H]1O [Vancomycin],% Survival (96 h post-infection),100%
